# Results: patent publication US20220249598A1, “COMPOSITIONS TARGETING SPERM CALCINEURIN” (Kent State University, priority 2019, published 2022)
# Entries after “also recorded” stand apart in the source; their conditions may differ.
# Key:
# [1] = 0.1% tacrolimus formulations; cited from earlier work
# GSK3α = assay: GSK3 phosphorylation in sperm by Western blot; assay type: cell-based, mouse; settings: FK506 20 nM during capacitation
# Procedure: (§1) The effect of calcineurin inhibitor on GSK3αβ phosphorylation was studied by Western blot procedure. Calcium dependence of calcineurin mediated GSK3α regulation was also checked. Both GSK3 activity and Calcineurin activity were measured in presence of FK506. FIG. 3 illustrates the regulation of GSK3α in mouse sperm by FK506. A) Modulation of phospho-serine/tyrosine profile GSK3α by FK506 (20 nM) during capacitation; for capacitation spermatozoa were incubated with ‘capacitation medium’, HTF or TYH for ˜90 min. B) phosphor-serine GSK3α status was checked during capacitation with TYH medium having high fatty acid containing BSA. C) Possible involvement of AKT in mediation of calcineurin induced regulation of GSK3α. D) Validation of involvement of extracellular calcium in GSK3α regulation; no calcium salt was added in the ‘−Ca^2+’ set, 10 μM BAPTA-AM was used to chelate intra-sperm Ca^2+ ions; […] phosphorylation was compared between wild type and ppp3r2 knockout sperm extract E) GSK3 activity of sperm cells under capacitating condition was checked using p^32radioactive ATP for phosphorylation of substrate. F) Co-relation among intracellular free calcium levels of different maturational stages of sperm cells with calcineurin activity was measured; for negative control, 20 nM of FK506 was used. All data represent mean±SEM of n=4 for all the values. *p≤0.05, **p≤0.01 versus control.
# mouse sperm = assay: sperm motility / hyperactivation by computer assisted sperm analyzer (CASA); assay type: cell-based; settings: FK506 treatment 120-180 min, capacitation; FIG. 2B
# Procedure: Another set of treated sperm cell was analyzed for its motility parameters using computer assisted sperm analyzer (CASA). Average path velocity (VAP), curvilinear velocity (VCL) and amplitude of lateral head displacement (ALH) were measured to assess hyperactivation. FIG. 2 illustrates the detection of FK506 induced defect in sperm motility and oocyte penetration. A) FK506 (20 nM) treated spermatozoa were used for both cumulus free zona intact oocytes as well as zona-free oocytes. B) Effect of FK506 treatment for (120-180 min) on sperm hyperactivation controlling parameters; VAP: average path velocity, VCL: curvilinear velocity, ALH: lateral head amplitude.
# sperm calcineurin = sperm calcineurin (Mus musculus, UniProt P26883+P48455+Q63811); assay: calcineurin activity in sperm; assay type: biochemical
# Procedure: The effect of calcineurin inhibitor on GSK3αβ phosphorylation was studied by Western blot procedure. Calcium dependence of calcineurin mediated GSK3α regulation was also checked. Both GSK3 activity and Calcineurin activity were measured in presence of FK506. […] A) Modulation of phospho-serine/tyrosine profile GSK3α by FK506 (20 nM) during capacitation; for capacitation spermatozoa were incubated with ‘capacitation medium’, HTF or TYH for ˜90 min. B) phosphor-serine GSK3α status was checked during capacitation with TYH medium having high fatty acid containing BSA. C) Possible involvement of AKT in mediation of calcineurin induced regulation of GSK3α. D) Validation of involvement of extracellular calcium in GSK3α regulation; no calcium salt was added in the ‘−Ca^2+’ set, 10 μM BAPTA-AM was used to chelate intra-sperm Ca^2+ ions; CatSper1 phosphorylation was compared between wild type and ppp3r2 knockout sperm extract E) GSK3 activity of sperm cells under capacitating condition was checked using p^32radioactive ATP for phosphorylation of substrate. F) Co-relation among intracellular free calcium levels of different maturational stages of sperm cells with calcineurin activity was measured; for negative control, 20 nM of FK506 was used.
# [2] = cited from earlier work
# sperm GSK3 = assay: GSK3 activity of sperm cells with p32 radioactive ATP; assay type: biochemical, mouse; settings: capacitating condition
# Procedure: as §1
# mouse caudal spermatozoa [3] = assay: IVF of treated spermatozoa with cumulus-free zona-free oocytes; assay type: cell-based; settings: FK506 20 nM, FIG. 2A
# Procedure: Nanomolar doses of FK506 were used to treat spermatozoa and then use those cells were used for in vitro fertilization (IVF) assays. The treated spermatozoa were exposed to three different types oocyte conditions while performing IVF: a) regular IVF with intact oocyte-cumulus complex, b) cumulus-free intact oocyte and c) cumulus-free zona-free oocyte. FIG. 2 illustrates the detection of FK506 induced defect in sperm motility and oocyte penetration. A) FK506 (20 nM) treated spermatozoa were used for both cumulus free zona intact oocytes as well as zona-free oocytes. B) Effect of FK506 treatment for (120-180 min) on sperm hyperactivation controlling parameters; VAP: average path velocity, VCL: curvilinear velocity, ALH: lateral head amplitude.
# oocytes = assay: IVF with oocytes pre-incubated with inhibitor, spermatozoa untreated; assay type: cell-based, mouse; settings: oocytes incubated with same concentration of FK506 (20 nM)
# Procedure: FIG. 1 illustrates the effect of treatments of mouse caudal spermatozoa with calcineurin and GSK3 inhibitors on in vitro fertilization, indicated by two-cell stage formation. A) Spermatozoa were incubated under capacitating medium (viz. […] Additionally, oocytes were also incubated with same concentration of FK506, which it encounters during the IVF, the corresponding spermatozoa set was untreated. All data represent mean±SEM of n=3 for all the values. *p≤0.05 versus control. B) Dose response curve of FK506 at 0, 2.5, 5, 10, 20 & 50 nM concentration. C) Representative images showing effect of FK506 on IVF; black triangles directing the two-cell stage after fertilization of eggs.
# mouse caudal spermatozoa [4] = assay: in vitro fertilization (IVF) with inhibitor-treated spermatozoa, two-cell stage formation; assay type: cell-based
# Procedure: Nanomolar doses of FK506 were used to treat spermatozoa and then use those cells were used for in vitro fertilization (IVF) assays. The treated spermatozoa were exposed to three different types oocyte conditions while performing IVF: a) regular IVF with intact oocyte-cumulus complex, b) cumulus-free intact oocyte and c) cumulus-free zona-free oocyte.
# A) Spermatozoa were incubated under capacitating medium (viz. […] Additionally, oocytes were also incubated with same concentration of FK506, which it encounters during the IVF, the corresponding spermatozoa set was untreated. […] B) Dose response curve of FK506 at 0, 2.5, 5, 10, 20 & 50 nM concentration.
compound,measurement,setting,value
"C=CC[C@@H]1/C=C(\C)C[C@H](C)C[C@H](OC)[C@H]2O[C@@](O)(C(=O)C(=O)N3CCCC[C@H]3C(=O)O[C@H](/C(C)=C/[C@@H]3CC[C@@H](O)[C@H](OC)C3)[C@H](C)[C@@H](O)CC1=O)[C@H](C)C[C@@H]2OC [FK506, tacrolimus]",skin side effects,[1],"increased sensitivity of skin, burning, stinging or itching sensations"
same,net phosphorylation of sperm GSK3,GSK3α,increase in the net phosphorylation
same,"hyperactivation of sperm (VAP, VCL, ALH)",mouse sperm,mostly unable to exhibit hyperactivity; also recorded: lack of attainment of hyperactivation
same,inhibition of sperm calcineurin,sperm calcineurin,inhibits sperm calcineurin at nanomolar level
same,titer of the drug in blood,[2]; 0.1% tacrolimus formulations,nanomolar titer
same,bioavailability from an ointment formulation,[2]; topical ointment,~0.5%
same,catalytic activity of sperm GSK3,sperm GSK3,decrease in catalytic activity
same,fertilization of zona-free eggs by treated sperm,mouse caudal spermatozoa [3],not affecting sperm cells to fertilize zona-free eggs
same,reduction in fertilization after pre-treatment of oocytes,oocytes,did not result in any reduction in fertilization
same,"inhibition of sperm ability to fertilize eggs in vitro, dose response","mouse caudal spermatozoa [4]; FK506 at 0, 2.5, 5, 10, 20 & 50 nM",good enough to inhibit
same,inhibition of fertilizing ability of sperm in vitro,"mouse caudal spermatozoa [4]; sperm incubated 1 hr at 37° C. in capacitating medium, FK506 20 nM, cyclosporin A 10 μM, two-cell stage formation, FIG. 1A",significantly and independently inhibit; also recorded: inhibited fertilization
